Results reported in US7306817B2, “Herbal composition for treating CD33+ acute and chronic myeloid leukemia and a method thereof” (Council of Scientific and Industrial Research, priority 2000, dated 2007).

What was measured:
[1] = tested on: CD33+ myeloid leukemia cells; test: Destruction of CD33+ myeloid leukemia cells (patient PBMC) in vitro, viability count and flow cytometry; format: cell-based, human; conditions: purified compound, varied concentrations, 48 h
Description: (§1) Whole blood (10 ml) was drawn from a previously diagnosed CD33+ myeloid leukemic patient and mononuclear cells were separated by Ficoll/hypaqal density gradient centrifugation.
Incubation of PBMC of myeloid leukemia patients with crude Piper betel extract. PBMC (2×10^6/ml) of myeloid leukemia patients were incubated with Piper betel extract (10.0 mg/ml) for 48 hours and then washed and counted for viability.
Incubation of PBMC of myeloid leukemia patients with fraction E in vitro. PBMC (2×10^6/ml) of myeloid leukemia patients were incubated with varied concentrations of fraction E for 48 hours. Cells were then washed and counted for viability.
(§2) Incubation of PBMC of myeloid leukemia patients with purified compound 3-O-p-coumaryl quinic acid in vitro. PBMC (2×10^6/ml) of myeloid leukemia patients were incubated with varied concentrations of purified compound for 48 h. Cells were then washed, and counted for viability.
Flow cytometry of myeloid leukemia cells; Myeloid leukemia cells before and after in vitro incubation with crude Piper betel extract, purified fraction E or purified 3-O-p-coumaryl quinic acid were marked with anti-CD33-FITC and anti-CD13-PE monoclonal antibodies. Cells were then analysed in a flow cytometer (FACS Calibur, Bection Dickinson, USA).

AML cells = test: Growth inhibition of AML cells in vitro; format: cell-based, human; conditions: single fraction, dose 100 μg/ml, 48 hrs
Description: as §1, §2
Incubation of myeloid leukemic cells with fractions having retention time 3.60 (fraction-1) and 24.00 min (fraction 9). PBMC of myeloid leukemic patients were incubated with above-mentioned fractions, alone or in combination of the two for 48 hrs. Cells were then washed and counted for viability.

Compound: O=C(C=Cc1ccc(O)cc1)OC1CC(O)(C(=O)O)CC(O)C1O (centres unmarked) [3-O-p-coumaryl quinic acid]
- effect on PBMC of CD33+ myeloid leukemia patients (both AML and CML) [1]: destroyed
- % Inhibition of growth (AML cells): 54.00%
